target: NLRP3 inflammasome (Homo sapiens (Human), UniProt Q96P20); experiment: Evaluation of NLRP3 inflammasome inhibitory activity (inhibition of IL-1β production in LPS/Nigericin-stimulated THP1-Null cells); assay type: cell-based; settings: IL-1β production in THP1-Null cells, PMA, LPS 1 μg/mL, Nigericin 7.5 μmol/L, AlphaLISA
Protocol: The NLRP3 inflammasome inhibitory activity of test compounds were evaluated on the basis of the inhibitory activity of the IL-1β production in THP1-Null cells (Product Number: thp-null, InvivoGen). […] The supernatant of the culture was removed, and thereto was added media for assay (25 μL/well) containing 1 μg/mL Lipopolysaccharides (Product Number: L2654, Sigma-Aldrich (registered trademark)). […] The supernatant of the culture was removed. […] A solution containing a test compound (20 μL/well) was added to test compound-setting wells. […] The supernatant of the culture was cryonically stored (set at −20° C.) until measurement of IL-1β.
The amount of IL-1β in the culture supernatant was quantitated with AlphaLISA(registered trademark) Human IL-1β Detection Kit (Product Number: AL220C, Perkin Elmer). Fluorescence intensity was measured with a microplate reader EnSpier (Model number: 2300-00J, Perkin Elmer) or EnSight(Model number: HH34000000, Perkin Elmer) according to procedure manuals attached thereto. Inhibition rates of the test compound-setting wells were calculated on the basis of 100% for the blank-setting wells and 0% for the control-setting wells.

NLRP3 inflammasome, sequence (Q96P20 whole entry): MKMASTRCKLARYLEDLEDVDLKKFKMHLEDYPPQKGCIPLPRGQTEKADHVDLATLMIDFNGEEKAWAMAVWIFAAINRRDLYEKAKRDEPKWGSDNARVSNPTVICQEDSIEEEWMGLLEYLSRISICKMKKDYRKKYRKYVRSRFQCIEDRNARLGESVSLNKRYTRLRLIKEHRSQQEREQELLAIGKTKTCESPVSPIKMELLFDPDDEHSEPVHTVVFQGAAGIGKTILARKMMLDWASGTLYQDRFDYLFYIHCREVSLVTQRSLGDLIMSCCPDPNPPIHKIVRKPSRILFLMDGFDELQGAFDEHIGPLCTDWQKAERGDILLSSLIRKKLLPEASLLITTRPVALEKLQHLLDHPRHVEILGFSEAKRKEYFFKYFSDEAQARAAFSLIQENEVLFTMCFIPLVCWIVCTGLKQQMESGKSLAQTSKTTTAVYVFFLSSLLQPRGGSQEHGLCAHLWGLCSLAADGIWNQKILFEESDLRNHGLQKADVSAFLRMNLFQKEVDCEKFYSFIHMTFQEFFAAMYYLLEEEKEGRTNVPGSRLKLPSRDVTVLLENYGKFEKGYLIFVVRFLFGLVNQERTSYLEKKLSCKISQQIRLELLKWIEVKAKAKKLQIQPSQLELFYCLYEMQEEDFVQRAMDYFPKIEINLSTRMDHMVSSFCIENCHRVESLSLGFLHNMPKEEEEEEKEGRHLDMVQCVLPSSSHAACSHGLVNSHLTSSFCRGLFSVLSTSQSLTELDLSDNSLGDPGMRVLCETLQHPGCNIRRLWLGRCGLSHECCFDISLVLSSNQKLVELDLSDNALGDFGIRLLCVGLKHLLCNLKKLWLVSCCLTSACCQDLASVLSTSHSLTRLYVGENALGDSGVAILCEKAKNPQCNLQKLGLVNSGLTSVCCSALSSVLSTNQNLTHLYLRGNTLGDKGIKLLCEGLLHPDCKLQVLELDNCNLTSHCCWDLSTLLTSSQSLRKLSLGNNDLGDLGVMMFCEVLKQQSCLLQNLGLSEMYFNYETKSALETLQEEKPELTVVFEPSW

SMILES	IC50
Cc1cc(Br)ccc1-n1cc2c(=O)n(C)c(N3CCN(S(C)(=O)=O)CC3)nc2n1 [Example 138]	0.14 µM
COC[C@H]1CCN(c2nc3nn(-c4ccc(Br)cc4C)cc3c(=O)[nH]2)CCO1 [Example 193]	0.042 µM
O=c1[nH]c(N2CC(F)C2)nc2nn(-c3ccc(C(F)(F)F)cc3Cl)cc12 [Example 181]	0.017 µM
Cc1cc(Br)ccc1-n1cc2c(=O)[nH]c(N3CCN(S(=O)(=O)C4CC4)CC3)nc2n1 [Example 139]	0.0053 µM
O=c1[nH]c(N2CC3CNCC3C2)nc2nn(-c3ccc(C(F)(F)F)cc3Cl)cc12 (stereo not drawn) [Example 186]	0.23 µM
Cc1cc(C(F)(F)F)cnc1-n1cc2c(=O)[nH]c(N3CC(F)(F)C3)nc2n1 [Example 123]	0.14 µM
Cc1c(-n2cc3c(=O)[nH]c(N4CCCC4)nc3n2)c(C(F)(F)F)nn1C(C)C [Example 346]	0.081 µM
C[C@@H]1COCCN1c1nc2nn(-c3ccc(Br)cc3C(F)(F)F)cc2c(=O)[nH]1 [Example 258]	0.023 µM
Cc1cc(C(F)(F)F)cc(C)c1-n1cc2c(=O)[nH]c(N3C[C@@H]4C[C@H]3CO4)nc2n1 [Example 250]	0.0089 µM
Cc1cc(C2(C(F)(F)F)CC2)cc(C)c1-n1cc2c(=O)[nH]c(N3CCOCC3)nc2n1 [Example 276]	0.22 µM
O=c1[nH]c(N2CCOCC2)nc2nn(-c3c(Cl)cc(C(F)(F)F)cc3OCC3CC3)cc12 [Example 190]	0.041 µM
Cc1cc(C2CC2)cc(F)c1-n1cc2c(=O)[nH]c(N3C[C@H]4C[C@@H]3CO4)nc2n1 [Example 299]	0.017 µM
Cc1cc(Br)cc(F)c1-n1cc2c(=O)[nH]c(N3CCOCC3)nc2n1 [Example 254]	0.014 µM
Cc1cc(C2=CCCCC2)ccc1-n1cc2c(=O)[nH]c(N3CCCC3)nc2n1 [Example 67]	2.3 µM
CCOc1cc(Br)ccc1-n1cc2c(=O)[nH]c(N3CCOCC3)nc2n1 [Example 302]	0.13 µM
Cc1ccccc1-n1cc2c(=O)[nH]c(N3CCC(C)(O)C3)nc2n1 (racemic) [Example 37]	3.2 µM
O=c1[nH]c(N2CC(O)C2)nc2nn(-c3ccc(C(F)(F)F)cc3Cl)cc12 [Example 182]	0.079 µM
O=c1[nH]c(N2CCOCC2)nc2nn(-c3ccccc3C(F)(F)F)cc12 [Example 25]	0.95 µM
CNc1nc2nn(-c3ccc(C)cc3C)cc2c(=O)[nH]1 [Example 65]	0.08 µM
Cc1cc(Cl)cc(C(O)C2CC2)c1-n1cc2c(=O)[nH]c(N3CCOCC3)nc2n1 (racemic) [Example 162]	0.15 µM
COC1CCN(c2nc3nn(-c4c(C)cc(C)cc4C)cc3c(=O)[nH]2)CC1 [Example 106]	0.096 µM
Cc1cc(C)cc(-n2cc3c(=O)[nH]c(N4CCCC4)nc3n2)c1 [Example 64]	0.29 µM
Cc1cc(Br)cc(Cl)c1-n1cc2c(=O)[nH]c(N3CCOCC3)nc2n1 [Example 146]	0.0092 µM
Cc1cc(Br)cc(C)c1-n1cc2c(=O)[nH]c(N3CC4CC3CN4S(C)(=O)=O)nc2n1 (racemic) [Example 219]	0.019 µM

SMILES	IC50
Cc1ccc(-n2cc3c(=O)[nH]c(N4CC(F)(F)C(F)(F)C4)nc3n2)c(C)c1 [Example 85]	0.024 µM
Cc1ccccc1-n1cc2c(=O)[nH]c(N3CCC(O)C3)nc2n1 (racemic) [Example 21]	1.6 µM
Cc1cc(C2CC2)cc(C)c1-n1cc2c(=O)[nH]c(N3CCOCCO3)nc2n1 [Example 349, 2-(4-cyclopropyl-2,6-dimethylphenyl)-6-(1,5,2-dioxazepan-2-yl)-2,5-dihydro-4H-pyrazolo[3,4-d]pyrimidin-4-one]	0.019 µM
Cc1cc(C)c(-n2cc3c(=O)[nH]c(N4CCC(CO)CC4)nc3n2)c(C)c1 [Example 115]	0.035 µM
Cc1cc(C2CCC2)cc(C)c1-n1cc2c(=O)[nH]c(N3CCOCC3)nc2n1 [Example 270]	0.083 µM
CCCNc1nc2nn(-c3ccccc3C)cc2c(=O)[nH]1 [Example 19]	1.4 µM
O=c1[nH]c(N2CCOCC2)nc2nn(-c3ccc(C4CC4)cc3C(F)F)cc12 [Example 244]	0.022 µM
COc1ccc(-n2cc3c(=O)[nH]c(N4CCCC4)nc3n2)c(Br)c1 [Example 307]	0.011 µM
Cc1cc(C)c(-n2cc3c(=O)[nH]c(N4CCNCC4)nc3n2)c(C)c1 [Example 102]	0.13 µM
O=c1[nH]c(N2CCOCC2)nc2nn(-c3c(O)cc(C(F)(F)F)cc3Cl)cc12 [Example 257]	0.069 µM
COCCOc1nc(N2CCOCC2)nc2nn(-c3ccc(Br)cc3C)cc12 [Example 154]	0.59 µM
CCc1cc(C)c(-n2cc3c(=O)[nH]c(N4CCOCC4)nc3n2)c(C)c1 [Example 292]	0.028 µM
Cc1cc(C(C)(F)F)cc(C)c1-n1cc2c(=O)[nH]c(N3CCOCCO3)nc2n1 [Example 351]	0.074 µM
Cc1cc(C2CC2)cc(F)c1-n1cc2c(=O)[nH]c(N3CCOCC3)nc2n1 [Example 255]	0.0062 µM
Cc1cc(C)c(-n2cc3c(=O)[nH]c(N4CC5C(C4)C5(F)F)nc3n2)c(C)c1 (stereo not drawn) [Example 114]	0.027 µM
Cc1cc(C)c(-n2cc3c(=O)[nH]c(N4CCC5(CC4)COC5)nc3n2)c(C)c1 [Example 118]	0.044 µM
Cc1cc(C2CC2)cc(C)c1-n1cc2c(=O)[nH]c(N3CCCOCC3)nc2n1 [Example 326]	0.0075 µM
COC(c1cc(Br)ccc1-n1cc2c(=O)[nH]c(N3C[C@H]4C[C@@H]3CO4)nc2n1)C1CC1 (stereo partly drawn) [Example 314]	1.1 µM
Cc1cc(Br)cc(C)c1-n1cc2c(=O)[nH]c(N3C[C@H]4C[C@@H]3CO4)nc2n1 [Example 197]	0.008 µM
CONc1nc2nn(-c3c(C)cc(C4CC4)cc3C)cc2c(=O)[nH]1 [Example 348]	0.033 µM
COC[C@@H]1CCN(c2nc3nn(-c4ccc(Br)cc4C)cc3c(=O)[nH]2)CCO1 [Example 192]	0.032 µM
CNc1nc2nn(-c3ccccc3C)cc2c(=O)[nH]1 [Example 36]	1.7 µM
CCOC1CCN(c2nc3nn(-c4ccccc4C)cc3c(=O)[nH]2)C1 (racemic) [Example 28]	0.95 µM
Cc1cc(Br)cc(C)c1-n1cc2c(=O)[nH]c(NCC(F)(F)F)nc2n1 [Example 266]	0.014 µM

SMILES	IC50
O=c1[nH]c(N2CCOCC2)nc2nn(-c3ccc(Cl)cc3C(F)(F)F)cc12 [Example 176]	0.027 µM
Cc1cc(C(F)(F)F)cc(C)c1-n1cc2c(=O)[nH]c(N3CCOCC3)nc2n1 [Example 237]	0.023 µM
CC(C)(C)c1ccc(-n2cc3c(=O)[nH]c(N4CCOCC4)nc3n2)c(Br)c1 [Example 306]	0.085 µM
CNC(=O)C1CCN(c2nc3nn(-c4c(C)cc(C)cc4C)cc3c(=O)[nH]2)C1 (racemic) [Example 110]	0.08 µM
Cc1c2c(=O)[nH]c(N3CCCC3)nc2nn1-c1ccc(C(F)(F)F)cc1 [Example 151]	0.05 µM
O=c1[nH]c(N2CCOCC2)nc2nn(-c3ccc(C4CC4)cc3C(F)(F)F)cc12 [Example 177]	0.0056 µM
Cc1cc(C2CC2)cc(Cl)c1-n1cc2c(=O)[nH]c(N3C[C@@H]4C[C@H]3CO4)nc2n1 [Example 288]	0.01 µM
Cc1ccccc1-n1cc2c(=O)[nH]c(Nc3ccccc3)nc2n1 [Example 24]	2.4 µM
O=c1[nH]c(N2CCOCC2)nc2nn(-c3c(F)cc(C4CC4)cc3C(F)(F)F)cc12 [Example 273]	0.013 µM
Cc1cc(C(F)(F)F)cc(C)c1-n1cc2c(=O)[nH]c(N3CCOCCO3)nc2n1 [Example 357]	0.028 µM
COc1ccccc1CN(C)c1nc2nn(-c3ccccc3C)cc2c(=O)[nH]1 [Example 7]	22 µM
Cc1cc(Br)ccc1-n1cc2c(=O)[nH]c(N3CCN(C(=O)C4CC4)CC3)nc2n1 [Example 140]	0.0058 µM
Cn1c(N2CC3CC(C2)O3)nc2nn(-c3ccc(C4CC4)cc3C(F)(F)F)cc2c1=O [Example 313]	0.24 µM
Cc1cc(C)c(-n2cc3c(=O)[nH]c(N4CCCC(CO)C4)nc3n2)c(C)c1 (racemic) [Example 116]	0.079 µM
O=c1[nH]c(N2CCOCC2)nc2nn(-c3ccc(Br)cc3OC(F)(F)F)cc12 [Example 206]	0.012 µM
CC(=O)N1CCN(c2nc3nn(-c4c(C)cc(C5CC5)cc4C)cc3c(=O)[nH]2)[C@H](C)C1 [Example 290]	0.01 µM
Cc1cc(C2CC2)cc(C)c1-n1cc2c(=O)[nH]c(N3CCC(C#N)C3)nc2n1 (racemic) [Example 324]	0.0062 µM
Cc1cc(Cl)cc(C)c1-n1cc2c(=O)[nH]c(N3CCOCC3)nc2n1 [Example 166]	0.016 µM
O=c1[nH]c(N2CCOCC2)nc2nn(-c3ccc(Cl)cc3CC3CC3)cc12 [Example 320]	0.045 µM
Cc1cc(Br)cc(C)c1-n1cc2c(=O)[nH]c(NCCF)nc2n1 [Example 267]	0.0065 µM
Cc1cc(Br)cc(C)c1-n1cc2c(=O)[nH]c(N3CC(F)C3)nc2n1 [Example 198]	0.008 µM
COCC(=O)N1CCN(c2nc3nn(-c4ccc(Br)cc4C)cc3c(=O)[nH]2)CC1 [Example 141]	0.0096 µM

same assay, conditions: IL-1β production in THP1-Null cells; test compound 0.024 μM

SMILES	inhibition at 0.024 µM
COc1nc(N2CCOCC2)nc2nn(-c3ccc(Br)cc3C)cc12 [Example 89, 4-(2-(4-bromo-2-methylphenyl)-4-methoxy-2H-pyrazolo[3,4-d]pyrimidin-6-yl)morpholine]	77%

same assay, conditions: IL-1β production in THP1-Null cells; test compound 24 μM

SMILES	inhibition at 24 µM
Cc1ccccc1-n1cc2c(=O)[nH]c(Nc3c4c(cc5c3CCC5)CCC4)nc2n1 [Example 44]	21%

— US20240287079A1, “6-AMINOPYRAZOLOPYRIMIDINE COMPOUND AND PHARMACEUTICAL USE THEREOF” (Japan Tobacco Inc., priority 2021, published 2024)
